Here are results for 1 compound from patent US20110046141A1, “USE OF PDE5 INHIBITORS FOR TREATING CIRCADIAN RHYTHM DISORDERS” (CONSEJO NACIONAL DE INVESTIGACIONES CIENTIFICAS Y TECNICAS …, priority 2007, published 2011).

Data set [1] deals with Syrian hamsters (Mesocricetus auratus). Kind of data set: Observation of sildenafil-induced penile erections in treated hamsters. It is filed as in vivo. Particulars: intermediate dose 3.5 mg/kg i.p.
Data set [2] has as its system cGMP levels in the hamster SCN. Nature of the data set: Determination of cGMP levels in the SCN by direct enzyme immunoassay. Format: in vivo. Particulars: n=4. How it is done: Determination of cGMP levels. Cyclic GMP content was determined using a direct enzyme immunoassay kit (Correlate-EIA #900-014, Assay Designs, Ann Arbor, Mich.). Hamsters received an injection of sildenafil (3.5 mg/kg, i.p.) or vehicle (sterile saline solution) at CT 18 and were sacrificed by decapitation 45-90 min later. The SCN were quickly punched out and immediately frozen in liquid nitrogen in order to avoid endogenous cGMP degradation. Tissue was grounded to a fine powder under liquid nitrogen and then homogenized in 0.1 M HCI. The overnight acetylated format of the kit was used. […] In order to precisely compare the effect of sildenafil on cGMP levels, the use of other phosphodiesterase inhibitors, e.g., IBMX, was avoided.

Data set [3] deals with Syrian hamsters (Mesocricetus auratus). Kind of data set: Reentrainment of wheel-running activity rhythm after a 6-hr phase delay of the LD cycle. Format: in vivo. Particulars: 3.5 mg/kg i.p. at ZT 14; 6-hr delay; FIG. 3A. As to the method:
(A) Effect on reentrainment of wheel-running activity rhythm following a 6-hr phase delay of the LD cycle. Double-plotted actograms of hamster wheel-running activity showing reentrainment to a 6-hr delay of the LD cycle after the injection of vehicle (top) and sildenafil (3.5 mg/kg, i.p., middle). Injections of either saline or sildenafil were given at ZT 14 on the day of the cycle change (white star). Bottom: mean±S.E.M. (n=4 animals per group) of days needed for reentrainment. (B) Effect of sildenafil on light-induced phase delays following light pulses at CT 14. Representative actograms showing vehicle (top) or sildenafil (middle) injections. Bottom graph: Mean±S.E.M. (n=4 animals per group). Animals. Male adult (3-4 month-old) Syrian hamsters (Mesocricetus auratus) were raised and maintained in a 14:10 h light-dark cycle (L:D, lights on at 0600 h), with food and water ad libitum and room temperature set at 20±2° C. All animal procedures were performed in strict accordance with NIH rules for animal care and maintenance. Activity rhythm recording. […] Running-wheel activity was continuously recorded for each animal using a digital system that registers wheel revolutions and stored at 5-min intervals for further analysis. […] Daily onsets of activity were determined. […]

Data set [4] shares this test system. Nature of the data set: Light-induced phase delays of activity rhythm, light pulse at CT 14. The settings on record: FIG. 3B. It is filed as in vivo. As to the method: (A) Effect on reentrainment of wheel-running activity rhythm following a 6-hr phase delay of the LD cycle. Double-plotted actograms of hamster wheel-running activity showing reentrainment to a 6-hr delay of the LD cycle after the injection of vehicle (top) and sildenafil (3.5 mg/kg, i.p., middle). Injections of either saline or sildenafil were given at ZT 14 on the day of the cycle change (white star). Bottom: mean±S.E.M. (n=4 animals per group) of days needed for reentrainment. (B) Effect of sildenafil on light-induced phase delays following light pulses at CT 14. Representative actograms showing vehicle (top) or sildenafil (middle) injections. Bottom graph: Mean±S.E.M. (n=4 animals per group). Animals. Male adult (3-4 month-old) Syrian hamsters (Mesocricetus auratus) were raised and maintained in a 14:10 h light-dark cycle (L:D, lights on at 0600 h), with food and water ad libitum and room temperature set at 20±2° C. All animal procedures were performed in strict accordance with NIH rules for animal care and maintenance. […] Phase shifts were calculated by fitting a line (by three observers masked to the experimental procedure) through activity onsets 5 days prior and between 5 and 15 days after light exposure and then comparing these two lines on the day of the light pulse. […]

Data set [5] has the same test system. Kind of data set: Reentrainment of wheel-running activity rhythm after an abrupt 6-h advance of the LD cycle. The settings on record: for time to resynchronize to the new LD cycle: saline 12±2 days; for decrease in reentrainment time: FIG. 1D. It is filed as in vivo. As to the method:
Animals. Male adult (3-4 month-old) Syrian hamsters (Mesocricetus auratus) were raised and maintained in a 14:10 h light-dark cycle (L:D, lights on at 0600 h), with food and water ad libitum and room temperature set at 20±2° C. All animal procedures were performed in strict accordance with NIH rules for animal care and maintenance. Activity rhythm recording. For the resynchronization experiment, animals were transferred to individual cages equipped with a running wheel (17 cm. diameter) and with light intensity averaging 200 lux at cage level. Running-wheel activity was continuously recorded for each animal using a digital system that registers wheel revolutions and stored at 5-min intervals for further analysis. Animals were initially maintained under a 14:10-h is light-dark cycle (LD, lights on at 1900 h) for at least 10 days. Then, hamsters were subjected to an abrupt 6-h advance in the phase of the LD cycle. On the day of the phase shift, intraperitoneal (i.p) injection of sildenafil or vehicle was given at zeitgeber time (ZT) 18, defining ZT 12 as the time of lights off. Time for reentrainment to the new LD cycle was defined as the time it took for each animal to adjust its activity onset with the new cycle (onset at the new time of lights off±15 minutes). Daily onsets of activity were determined. Briefly, activity onset was defined as the 10 min-bin that contained at least 80 wheel revolutions, followed by another bin of at least another 80 wheel revolutions within 40 min. The effect of 1, 3.5 or 10 mg/kg sildenafil—extracted from commercial preparations according to Francis et al. (Int. J. Impotence Res. 2003 15: 369-372) was tested at ZT 14 or 18 in comparison to vehicle administration (sterile saline).

The subject of the next data set is rats. Particulars: i.p.; cited from earlier work.
Data set [6] deals with Syrian hamsters (Mesocricetus auratus). Nature of the data set: Light-induced phase advances of activity rhythm, 15-min 50 lux light pulse at CT 18 in constant dark. The settings on record: for light-induced phase advance: vehicle 76±23 min. Format: in vivo. How it is done:
Animals. Male adult (3-4 month-old) Syrian hamsters (Mesocricetus auratus) were raised and maintained in a 14:10 h light-dark cycle (L:D, lights on at 0600 h), with food and water ad libitum and room temperature set at 20±2° C. All animal procedures were performed in strict accordance with NIH rules for animal care and maintenance.
For light pulse experiments, hamsters were placed in constant dark (DD) conditions, and exposed to a 15-min white light pulse of 50 lux at either circadian time (CT) 14 or 18 (with CT 12 defined as the onset of wheel running activity in DD). Phase shifts were calculated by fitting a line (by three observers masked to the experimental procedure) through activity onsets 5 days prior and between 5 and 15 days after light exposure and then comparing these two lines on the day of the light pulse. […]

For `CCCc1nn(C)c2c(=O)[nH]c(-c3cc(S(=O)(=O)N4CCN(C)CC4)ccc3OCC)nc12` [sildenafil, 5-[2-ethoxy-5-(4-methyl-1-piperazinylsulphonyl)phenyl]-1-methyl-3-n-propyl-1,6-dihydro-7H-pyrazolo[4,3-d]pyrimidin-7-one], the sildenafil-induced penile erections result in data set [1] is listed as “did not manifest the effects of sildenafil-induced penile erections”. In addition, the “SCN cGMP levels” value in data set [2] (3.5 mg/kg i.p. at CT 18, 45 minutes after injection, saline 0.37±0.20, control 0.29±0.15, mean±SD) is 0.63±0.08 pmol cGMP/mg protein; in data set [2] (90 min after injection, saline 0.26±0.16, no increase vs controls), 0.37±0.20 pmol cGMP/mg protein. Besides, in data set [3], the “effect on reentrainment rates after a delay in the LD cycle” value is given as “did not affect”. Besides, the “effect on light-induced phase delays” value in data set [4] is given as “did not affect”. Further, the “time to resynchronize to the new LD cycle” value in data set [5] (1 mg/kg i.p. at ZT 18, p>0.05 vs. control) worked out at 9 ± 3 days; in data set [5] (3.5 mg/kg i.p. at ZT 18 on day of 6-h advance, mean±SD, six animals per group, p<0.05), 8 ± 1 days; in data set [5] (10 mg/kg i.p. at ZT 18, p<0.001 vs. control), 6 ± 2 days. Besides, the “decrease in reentrainment time” value was determined as 25% in data set [5] (1 mg/kg), 33% in data set [5] (3.5 mg/kg) and 50% in data set [5] (10 mg/kg). Further, the optimal erectogenic dose in the data set on rats is 5 mg/kg/day. The light-induced phase advance in data set [6] (3.5 mg/kg i.p. 45 min prior to light pulse at CT 18, mean±SD, p<0.05) turned out to be 150.4 ± 64.8 min; in data set [6] (injection 90 min before light pulse at CT 18, not significantly different from controls), 123 ± 27 min. In data set [6] (after light-induced phase advance), the post-treatment circadian period entry is listed as “did not change”. The “effect on activity rhythms, drug alone” value in data set [6] (without light pulse) is “did not modify activity rhythms”.
